How the values were obtained:
HaCaT [1] = experiment: Cytotoxicity against human HaCaT cells at 50 to 100 uM after 24 hrs by MTT assay; assay type: cell-based
RAW264.7 [2] = experiment: Antiinflammatory activity against LPS-stimulated mouse RAW264.7 cells assessed as inhibition of TNFalpha production at 1 to 15 uM after 18 hrs by ELISA; assay type: functional, cell-based
HaCaT [3] = experiment: Antiinflammatory activity against IFN-gamma-stimulated human HaCaT cells assessed as inhibition of chemokine MDC production at 50 to 100 uM after 18 hrs by ELISA; assay type: functional, cell-based
RAW264.7 [4] = experiment: Antiinflammatory activity against LPS-stimulated mouse RAW264.7 cells assessed as inhibition of IL-6 production at 1 to 15 uM after 18 hrs by ELISA; assay type: functional, cell-based
RAW264.7 [5] = experiment: Antiinflammatory activity against LPS-stimulated mouse RAW264.7 cells assessed as inhibition of IL1-beta production at 1 to 15 uM after 18 hrs by ELISA; assay type: functional, cell-based
RAW264.7 [6] = experiment: Antiinflammatory activity against LPS-stimulated mouse RAW264.7 cells assessed as inhibition of NO production at 3.125 to 25 uM after 24 hrs by Griess method; assay type: functional, cell-based
[7] = Cytotoxicity against mouse RAW264.7 cells after 24 hrs by MTT assay; assay type: cell-based; settings: read-out: TC50
RAW264.7 [8] = experiment: Cytotoxicity against mouse RAW264.7 cells at 100 uM after 24 hrs by MTT assay; assay type: cell-based; settings: raw264.7, 24 h
RAW264.7 [9] = experiment: Cytotoxicity against mouse RAW264.7 cells at 50 uM after 24 hrs by MTT assay; assay type: cell-based; settings: raw264.7, 24 h

SMILES: CCCCCCCC/C=C\CCCCCCCCCCCC(=O)NCc1ccc(O)c(OC)c1
- Activity (HaCaT [1]): Toxic
- Activity (RAW264.7 [2]): Dose-dependent effect
- Activity (HaCaT [3]): Non-toxic
- Activity (RAW264.7 [4]): Dose-dependent effect
- Activity (RAW264.7 [5]): Dose-dependent effect

SMILES: CCCCCCCCCCCCCCCC(=O)NCCc1ccc(O)c(O)c1 [PALMITOYL DOPAMINE]
- Activity (RAW264.7 [6]): Dose-dependent effect
- Activity (RAW264.7 [6]; record 2): 2 µM
- Activity (HaCaT [1]): Toxic
- CC50 at 24 h [7]: 13 µM
- Activity (RAW264.7 [8]): Toxic
- Activity (RAW264.7 [2]): Dose-dependent effect
- Activity (HaCaT [3]): Non-toxic
- Activity (RAW264.7 [4]): Dose-dependent effect
- Activity (RAW264.7 [5]): Dose-dependent effect
- Activity (RAW264.7 [9]): Toxic

SMILES: CCCCCCCCCCCCCCCC(=O)NCc1ccc(O)c(OC)c1
- Activity (HaCaT [1]): Toxic
- Activity (RAW264.7 [2]): Dose-dependent effect
- Activity (HaCaT [3]): Non-toxic
- Activity (RAW264.7 [4]): Dose-dependent effect
- Activity (RAW264.7 [5]): Dose-dependent effect

SMILES: CCCCCCCC/C=C\CCCCCCCCCCCC(=O)NCCc1ccc(O)c(O)c1
- Activity (RAW264.7 [6]): Dose-dependent effect
- Activity (RAW264.7 [6]; record 2): 2 µM
- Activity (HaCaT [1]): Toxic
- CC50 at 24 h [7]: 13 µM
- Activity (RAW264.7 [8]): Toxic
- Activity (RAW264.7 [2]): Dose-dependent effect
- Activity (HaCaT [3]): Non-toxic
- Activity (RAW264.7 [4]): Dose-dependent effect
- Activity (RAW264.7 [5]): Dose-dependent effect
- Activity (RAW264.7 [9]): Toxic

SMILES: CCCCC/C=C\C/C=C\CCCCCCCC(=O)NCCc1ccc(O)c(O)c1
- Activity (RAW264.7 [6]): Dose-dependent effect
- Activity (RAW264.7 [6]; record 2): 2 µM
- Activity (HaCaT [1]): Toxic
- CC50 at 24 h [7]: 13 µM
- Activity (RAW264.7 [8]): Toxic
- Activity (RAW264.7 [2]): Dose-dependent effect
- Activity (HaCaT [3]): Non-toxic
- Activity (RAW264.7 [4]): Dose-dependent effect
- Activity (RAW264.7 [5]): Dose-dependent effect
- Activity (RAW264.7 [9]): Toxic

SMILES: CCCCCCCCC(=O)/C=C/CCCCCCC(=O)NCCc1ccc(O)c(O)c1
- Activity (RAW264.7 [6]): Dose-dependent effect
- IC50 (RAW264.7 [6]; Mus musculus, RAW264.7, 24 h): 2 µM
- Activity (HaCaT [1]): Toxic
- CC50 at 24 h [7]: 13 µM
- Activity (RAW264.7 [8]): Toxic
- Activity (RAW264.7 [2]): Dose-dependent effect
- Activity (HaCaT [3]): Non-toxic
- Activity (RAW264.7 [4]): Dose-dependent effect
- Activity (RAW264.7 [5]): Dose-dependent effect
- Activity (RAW264.7 [9]): Toxic

SMILES: CC/C=C\C/C=C\C/C=C\CCCCCCCC(=O)NCCc1ccc(O)c(O)c1 [LINOLEOYL DOPAMINE]
- Activity (RAW264.7 [6]): Dose-dependent effect
- Activity (RAW264.7 [2]): Dose-dependent effect
- Activity (HaCaT [3]): Non-toxic
- Activity (RAW264.7 [4]): Dose-dependent effect
- Activity (RAW264.7 [5]): Dose-dependent effect

SMILES: CCCCCCCC/C=C\CCCCCCCC(=O)NCCc1ccc(O)c(O)c1 [OLEOYL DOPAMINE]
- Activity (RAW264.7 [6]): Dose-dependent effect
- Activity (RAW264.7 [6]; record 2): 2 µM
- Activity (HaCaT [1]): Toxic
- CC50 at 24 h [7]: 13 µM
- Activity (RAW264.7 [8]): Toxic
- Activity (RAW264.7 [2]): Dose-dependent effect
- Activity (HaCaT [3]): Non-toxic
- Activity (RAW264.7 [4]): Dose-dependent effect
- Activity (RAW264.7 [5]): Dose-dependent effect
- Activity (RAW264.7 [9]): Toxic

SMILES: CCCCCCCC/C=C\CCCCCCCC(=O)NCc1ccc(O)c(OC)c1 [OLVANIL]
- Activity (HaCaT [1]): Toxic
- Activity (RAW264.7 [2]): Dose-dependent effect
- Activity (HaCaT [3]): Non-toxic
- Activity (RAW264.7 [4]): Dose-dependent effect
- Activity (RAW264.7 [5]): Dose-dependent effect

SMILES: CCCCC/C=C\C/C=C\CCCCCCCC(=O)NCc1ccc(O)c(OC)c1
- Activity (HaCaT [1]): Toxic
- Activity (RAW264.7 [2]): Dose-dependent effect
- Activity (HaCaT [3]): Non-toxic
- Activity (RAW264.7 [4]): Dose-dependent effect
- Activity (RAW264.7 [5]): Dose-dependent effect

SMILES: CC/C=C\C/C=C\C/C=C\CCCCCCCC(=O)NCc1ccc(O)c(OC)c1
- Activity (HaCaT [1]): Toxic
- Activity (RAW264.7 [2]): Dose-dependent effect
- Activity (HaCaT [3]): Non-toxic
- Activity (RAW264.7 [4]): Dose-dependent effect
- Activity (RAW264.7 [5]): Dose-dependent effect
